Results from patent EP0187619A2, “1,3-Disubstituted tetrahydropyridines” (priority 1985, dated 1986).

What was measured:
[1] = system: amnesiogene Wirkung eines Elektroschocks; experiment: Two-compartment test: protection against electroshock-induced amnesia; type: in vivo, Maus; settings: for antiamnesiogener Effekt: significance by Mann-Whitney U test
Protocol: So vermindern sie an der Maus in Dosen ab etwa 0,1 mg/kg i.p. sowie p.o. die amnesiogene Wirkung eines Elektroschocks in mindestens gleichem Ausmass wie nach Verabfolgung einer nootrop wirksamen Dosis von Piracetam (100 mg/kg i.p.). Zum Nachweis der nootropen Wirkung kann beispielsweise der Two-Compartment-Test herangezogen werden.
Als Literatur über pharmakologische Modelle dieser Art seien z.B. genannt: S.J. Sara und D. Lefevre, Paychopharmacologia 25, 32-40 (1972), Hypoxia-induced amnesia in one-trial learning and pharmacological protection by piracetam. Boggan, W.O., und Schlesinger, K., in Behavioral Biology 12, 127-134 (1974).

[2] = Step-down Passive Avoidance Test (Mondadori and Waser): memory improvement; type: in vivo; settings: for Gedächtnisverbesserung: significance by Mann-Whitney U test; for Dosis, um die gedächtnisverbessernde Wirkung von 0,1 mg/kg i.p. von 1-[2-(Indol-3-yl)ethyl]-1,2,5,6,-tetrahydro-pyridin-3-carbonsauremethylester zu erzielen / Dosis relativ zu 1-[2-(Indol-3-yl)ethyl]-1,2,5,6,-tetrahydro-pyridin-3-carbonsauremethylester für gleiche gedächtnisverbessernde Wirkung: i.p.; for Dosis relativ zu 1-[2-(Indol-3-yl)ethyl]-1,2,5,6,-tetrahydro-pyridin-3-carbonsauremethylester für gleiche gedächtnisverbessernde Wirkung: 10 mg/kg versus 0,1 mg/kg
Protocol: Insbesondere zeigen die Verbindungen der Formel I eine starke gedächtnisverbessernde Wirkung im Step-down Passive Avoidance Test nach Mondadori und Waser, Psychopharmacology 63, 297-300 (1979). Die Substanzen sind wirksam bei intraperitonealer Gabe 30 Minuten vor dem Lernversuch (wirksame Dosen 0,1, 1, 10 mg/kg). Eine deutliche Wirkung war auch feststellbar bei peroraler Applikation 60 Minuten vor dem Lernversuch (wirksame Dosen 0,1, 1, 10 mg/kg) sowie bei intraperitonealer Applikation unmittelbar nach dem Lernversuch (wirksame Dosen 0,1, 1, 10 mg/kg). […] Daraus ergibt sich, dass, um die gedächtnisverbessernde Wirkung von 0,1 mg/kg i.p. von 1-[2-(Indol-3-yl)ethyl]-1,2,5,6,-tetrahydro-pyridin-3-carbonsauremethylester zu erzielen, 10 mg/kg i.p., d.h. die 100-fache Dosis eines Isomeren A, B und C benötigt werden. Die Signifikanzangaben beziehen sich, ebenso wie im vorhergehenden Absatz, auf den U-Test von Mann und Whitney.

| Structure (SMILES) | nootrop wirksame Dosis ([1]; Maus, i.p., reference) [mg/kg] | antiamnesiogener Effekt ([1]; 0,1 mg/kg i.p.) | antiamnesiogener Effekt ([1]; 10 mg/kg i.p.) | antiamnesiogener Effekt ([1]; 1,0 mg/kg i.p.) | Gedächtnisverbesserung ([2]; 0,1 mg/kg i.p.) | Gedächtnisverbesserung ([2]; 10 mg/kg i.p.) | Gedächtnisverbesserung ([2]; 1,0 mg/kg i.p.) | Dosis, um die gedächtnisverbessernde Wirkung von 0,1 mg/kg i.p. von 1-[2-(Indol-3-yl)ethyl]-1,2,5,6,-tetrahydro-pyridin-3-carbonsauremethylester zu erzielen [2] [mg/kg] | Dosis relativ zu 1-[2-(Indol-3-yl)ethyl]-1,2,5,6,-tetrahydro-pyridin-3-carbonsauremethylester für gleiche gedächtnisverbessernde Wirkung [2] |
| --- | --- | --- | --- | --- | --- | --- | --- | --- | --- |
| NC(=O)CN1CCCC1=O [Piracetam] | 100 | – | – | – | – | – | – | – | – |
| CCOC(=O)C1=CCCN(Cc2c[nH]c3ccccc23)C1 [Isomere B, 1-(Indol-3-yl)methyl-l,2,5,6-tetrahydro-pyridin-3-carbonsäureethylester] | – | ähnlichen, jedoch weniger signifikanten (p<0,05) Effekt | ähnlichen, jedoch weniger signifikanten (p<0,05) Effekt | ähnlichen, jedoch weniger signifikanten (p<0,05) Effekt | keinen | signifikanten (p<0,05) Effekt | keinen | 10 | 100 -fache Dosis |
| COC(=O)C1=CCN(CCc2c[nH]c3ccccc23)CC1 [Isomere C, 1-[2-(Indol-3-yl)ethyl]-1,2,5,6-tetrahydro-pyridin-4-carbonsäuremethylester] | – | keine signifikante antiamnesiogene Wirkung | keine signifikante antiamnesiogene Wirkung | keine signifikante antiamnesiogene Wirkung | keinen | signifikanten (p<0,05) Effekt | keinen | 10 | 100 -fache Dosis |
| COC(=O)C1=CCCN(CCc2c[nH]c3ccccc23)C1 [1-[2-(Indol-3-yl)ethyl]-1,2,5,6-tetrahydro-pyridin-3-carbonsäuremethylester] | – | hochsignifikanten (p<0,01) antiamnesiogenen Effekt | – | hochsignifikanten (p<0,01) antiamnesiogenen Effekt | signifikante (p<0,05) | hochsignifikante (p<0,01) | signifikante (p<0,05) | – | – |
| COC(=O)C1=CN(CCc2c[nH]c3ccccc23)CCC1 [Isomere A, 1-(2-(Indol-3-yl)-ethyl]-1,4,5,6-tetrahydro-pyridin-3-carbonsäuremethylester] | – | keinen signifikanten | keinen signifikanten | gewissen (nur einseitig signifikanten) | keinen | signifikanten (p<0,05) Effekt | keinen | 10 | 100 -fache Dosis |
